Assay results from US8334316B2, “Substituted organosulfur compounds and methods of using thereof” (ACEA Biosciences, Inc., priority 2004, dated 2012).
Read-outs that look alike come from different tables or passages of the source.

Assay: Acute toxicity, single intravenous injection, LD50 (Bliss method) in Kunming mice
Assay type: in vivo
Settings: for Dead animals on day 8 after the single intravenous injection / Dead animals on day 9 after the single intravenous injection / Dead animals on days 10-14 after the single intravenous injection / Percentage of dead animals / Dead animals on day 1 after the single intravenous injection / Dead animals on day 2 after the single intravenous injection / Dead animals on day 3 after the single intravenous injection / Dead animals on day 4 after the single intravenous injection / Dead animals on day 5 after the single intravenous injection / Dead animals on day 6 after the single intravenous injection / Dead animals on day 7 after the single intravenous injection: 10 animals; for LD50 at 2 weeks: Kunming, mouse, in vivo, iv
Procedure: To evaluate the in vivo acute, intravenous toxicity of DBTS and ACEA100108 (a derivative of DBTS, see Table 33), the experiments were performed in non-tumor bearing, normal Kunming mice by monitoring the acute response of mice to a single dose of DBTS or ACEA100108 via intravenous injection (i.v.). The number of death for the treated mice was monitored and recorded. LD50 values for these compounds were calculated. Details of the study are provided below.
The experiments to test DBTS and ACEA100108 acute toxicity were performed in mice. The test mice were randomly divided into six groups (five dosing groups and one control group). Each group contained 20 Kunming strain mice, and among them, 50% were male and 50% were female. After administration of a single dose of DBTS or ACEA100108 via intravenous injection (i.v.), the acute response to DBTS or ACEA100108 compound, and the death of the treated mice during the first two weeks were monitored and recorded. The LD50 value was calculated using the Bliss method.
Materials and Method. The test chemical compound were DBTS and ACEA100108, which were dissolved into hydrogenated castor oil in the pre-warmed water bath and made as a 20 mg/ml solution. The solution was further diluted to desired experiment concentrations with the normal saline. The administration volume was 0.5 ml i.v. per mouse and the injection speed was 0.5 ml/0.5 min.
The experimental mice were Kunming strain, provided by the Experimental Animal Department, Shanghai Pharmaceutical Industry Institute. The certificate number of the facility was Animal Facility Certification Number 107. The average weight of the mice was 18-20 gram. Each test group contained 20 Kunming strain mice, and among them, 10 mice were male and 10 mice were female. […] The mice in the control group were only given the same volume of the solvent, which were diluted hydrogenated castor oil. All the testing mice were given a single intravenous injection of DBTS, ACEA100108, or the solvent that served as the control at the injection speed of 0.5 ml/0.5 min. The acute response to DBTS, ACEA100108 or the solvent immediately after the administration, as well as weight change, and the death within the first two weeks of the administration were monitored and recorded. The intravenous injection LD50 values in mice were calculated using the Bliss method.

Fc1ccc(CSSSCc2ccc(F)cc2)cc1 [ACEA100108, Di(p-fluorobenzyl)trisulfide]
Dead animals on day 8 after the single intravenous injection (Female, 320 mg/kg): 0
Dead animals on day 9 after the single intravenous injection (Female, 320 mg/kg): 0
Dead animals on days 10-14 after the single intravenous injection (Female, 320 mg/kg): 0 - - - 0
Percentage of dead animals (Female, 320 mg/kg): 50%
Average animal weight, End (Female, 320 mg/kg, Beginning 19.9): 24.6
Dead animals on day 1 after the single intravenous injection (Female, 400 mg/kg): 5
Dead animals on day 2 after the single intravenous injection (Female, 400 mg/kg): 2
Dead animals on day 3 after the single intravenous injection (Female, 400 mg/kg): 0
Dead animals on day 4 after the single intravenous injection (Female, 400 mg/kg): 1
Dead animals on day 5 after the single intravenous injection (Female, 400 mg/kg): 0
Dead animals on day 6 after the single intravenous injection (Female, 400 mg/kg): 0
Dead animals on day 7 after the single intravenous injection (Female, 400 mg/kg): 0
Dead animals on day 8 after the single intravenous injection (Female, 400 mg/kg): 0
Dead animals on day 9 after the single intravenous injection (Female, 400 mg/kg): 0
Dead animals on days 10-14 after the single intravenous injection (Female, 400 mg/kg): 0 - - - 0
Percentage of dead animals (Female, 400 mg/kg): 80%
Average animal weight, End (Female, 400 mg/kg, Beginning 19.9): 23.5
Dead animals on day 1 after the single intravenous injection (Female, 500 mg/kg): 10
Dead animals on day 2 after the single intravenous injection (Female, 500 mg/kg): 0
Dead animals on day 3 after the single intravenous injection (Female, 500 mg/kg): 0
Dead animals on day 4 after the single intravenous injection (Female, 500 mg/kg): 0
Dead animals on day 5 after the single intravenous injection (Female, 500 mg/kg): 0
Dead animals on day 6 after the single intravenous injection (Female, 500 mg/kg): 0
Dead animals on day 7 after the single intravenous injection (Female, 500 mg/kg): 0
Dead animals on day 8 after the single intravenous injection (Female, 500 mg/kg): 0
Dead animals on day 9 after the single intravenous injection (Female, 500 mg/kg): 0
Dead animals on days 10-14 after the single intravenous injection (Female, 500 mg/kg): 0 - - - 0
Percentage of dead animals (Female, 500 mg/kg): 100%
Dead animals on day 1 after the single intravenous injection (Male, 163.8 mg/kg): 0
Dead animals on day 2 after the single intravenous injection (Male, 163.8 mg/kg): 0
Dead animals on day 3 after the single intravenous injection (Male, 163.8 mg/kg): 0
Dead animals on day 4 after the single intravenous injection (Male, 163.8 mg/kg): 0
Dead animals on day 5 after the single intravenous injection (Male, 163.8 mg/kg): 0
Dead animals on day 6 after the single intravenous injection (Male, 163.8 mg/kg): 0
Dead animals on day 7 after the single intravenous injection (Male, 163.8 mg/kg): 0
Dead animals on day 8 after the single intravenous injection (Male, 163.8 mg/kg): 0
Dead animals on day 9 after the single intravenous injection (Male, 163.8 mg/kg): 0
Dead animals on days 10-14 after the single intravenous injection (Male, 163.8 mg/kg): 0 - - - 0
Percentage of dead animals (Male, 163.8 mg/kg): 0%
Average animal weight, End (Male, 163.8 mg/kg, Beginning 20.4): 27.0
Dead animals on day 1 after the single intravenous injection (Male, 204.8 mg/kg): 0
Dead animals on day 2 after the single intravenous injection (Male, 204.8 mg/kg): 0
Dead animals on day 3 after the single intravenous injection (Male, 204.8 mg/kg): 1
Dead animals on day 4 after the single intravenous injection (Male, 204.8 mg/kg): 0
Dead animals on day 5 after the single intravenous injection (Male, 204.8 mg/kg): 0
Dead animals on day 6 after the single intravenous injection (Male, 204.8 mg/kg): 0
Dead animals on day 7 after the single intravenous injection (Male, 204.8 mg/kg): 0
Dead animals on day 8 after the single intravenous injection (Male, 204.8 mg/kg): 0
Dead animals on day 9 after the single intravenous injection (Male, 204.8 mg/kg): 0
Dead animals on days 10-14 after the single intravenous injection (Male, 204.8 mg/kg): 0 - - - 0
Percentage of dead animals (Male, 204.8 mg/kg): 10%
Average animal weight, End (Male, 204.8 mg/kg, Beginning 20.3): 26.3
Dead animals on day 1 after the single intravenous injection (Male, 256 mg/kg): 0
Dead animals on day 2 after the single intravenous injection (Male, 256 mg/kg): 2
Dead animals on day 3 after the single intravenous injection (Male, 256 mg/kg): 0
Dead animals on day 4 after the single intravenous injection (Male, 256 mg/kg): 1
Dead animals on day 5 after the single intravenous injection (Male, 256 mg/kg): 0
Dead animals on day 6 after the single intravenous injection (Male, 256 mg/kg): 0
Dead animals on day 7 after the single intravenous injection (Male, 256 mg/kg): 0
Dead animals on day 8 after the single intravenous injection (Male, 256 mg/kg): 0
Dead animals on day 9 after the single intravenous injection (Male, 256 mg/kg): 0
Dead animals on days 10-14 after the single intravenous injection (Male, 256 mg/kg): 0 - - - 0
Percentage of dead animals (Male, 256 mg/kg): 30%
Average animal weight, End (Male, 256 mg/kg, Beginning 20.2): 26.3
Dead animals on day 1 after the single intravenous injection (Male, 320 mg/kg): 0
Dead animals on day 2 after the single intravenous injection (Male, 320 mg/kg): 3
Dead animals on day 3 after the single intravenous injection (Male, 320 mg/kg): 1
Dead animals on day 4 after the single intravenous injection (Male, 320 mg/kg): 0
Dead animals on day 5 after the single intravenous injection (Male, 320 mg/kg): 0
Dead animals on day 6 after the single intravenous injection (Male, 320 mg/kg): 0
Dead animals on day 7 after the single intravenous injection (Male, 320 mg/kg): 0
Dead animals on day 8 after the single intravenous injection (Male, 320 mg/kg): 0
Dead animals on day 9 after the single intravenous injection (Male, 320 mg/kg): 0
Dead animals on days 10-14 after the single intravenous injection (Male, 320 mg/kg): 0 - - - 0
Percentage of dead animals (Male, 320 mg/kg): 40%
Average animal weight, End (Male, 320 mg/kg, Beginning 20.0): 26.7
Dead animals on day 1 after the single intravenous injection (Male, 400 mg/kg): 3
Dead animals on day 2 after the single intravenous injection (Male, 400 mg/kg): 3
Dead animals on day 3 after the single intravenous injection (Male, 400 mg/kg): 0
Dead animals on day 4 after the single intravenous injection (Male, 400 mg/kg): 1
Dead animals on day 5 after the single intravenous injection (Male, 400 mg/kg): 0
Dead animals on day 6 after the single intravenous injection (Male, 400 mg/kg): 0
Dead animals on day 7 after the single intravenous injection (Male, 400 mg/kg): 0
Dead animals on day 8 after the single intravenous injection (Male, 400 mg/kg): 0
Dead animals on day 9 after the single intravenous injection (Male, 400 mg/kg): 0
Dead animals on days 10-14 after the single intravenous injection (Male, 400 mg/kg): 0 - - - 0
Percentage of dead animals (Male, 400 mg/kg): 70%
Average animal weight, End (Male, 400 mg/kg, Beginning 19.9): 26.0
Dead animals on day 1 after the single intravenous injection (Male, 500 mg/kg): 10
Dead animals on day 2 after the single intravenous injection (Male, 500 mg/kg): 0
Dead animals on day 3 after the single intravenous injection (Male, 500 mg/kg): 0
Dead animals on day 4 after the single intravenous injection (Male, 500 mg/kg): 0
Dead animals on day 5 after the single intravenous injection (Male, 500 mg/kg): 0
Dead animals on day 6 after the single intravenous injection (Male, 500 mg/kg): 0
Dead animals on day 7 after the single intravenous injection (Male, 500 mg/kg): 0
Dead animals on day 8 after the single intravenous injection (Male, 500 mg/kg): 0
Dead animals on day 9 after the single intravenous injection (Male, 500 mg/kg): 0
Dead animals on days 10-14 after the single intravenous injection (Male, 500 mg/kg): 0 - - - 0
Percentage of dead animals (Male, 500 mg/kg): 100%
LD50 at 2 weeks (both sexes, 50% male, 50% female Kunming mice, single intravenous injection, confidence limits, read-out: LD50 (95% CL)): 284 to 351 mg/kg
LD50 at 2 weeks (both sexes, 50% male, 50% female Kunming mice, single intravenous injection, read-out: LD50): 316 mg/kg
LD50 at 2 weeks (both sexes, Kunming mice, 50% male 50% female, Bliss method, read-out: mouse single i.v. dose LD50, interval in parentheses): 284 to 351 mg/kg
LD50 at 2 weeks (both sexes, Kunming mice, 50% male 50% female, Bliss method, read-out: mouse single i.v. dose LD50 value): 316 mg/kg
LD50 at 2 weeks (female, Female Kunming mice, single intravenous injection, confidence limits, read-out: LD50 (95% CL)): 273 to 360 mg/kg
LD50 at 2 weeks (female, Female Kunming mice, single intravenous injection, read-out: LD50): 313 mg/kg
LD50 at 2 weeks (male, Male Kunming mice, single intravenous injection, confidence limits, read-out: LD50 (95% CL)): 272 to 375 mg/kg
LD50 at 2 weeks (male, Male Kunming mice, single intravenous injection, read-out: LD50): 319 mg/kg
